Data reported in US5178877A, “Encapsulated renin inhibitor composition” (priority 1991, dated 1993).

Columns and labels:
[1] = Oral bioavailability studies in fasted dogs; details: dog, in vivo
Description: The following compositions comprising compound I were prepared and the bioavailability of each composition was determined in fasted dogs. Dogs (beagle dogs, mixed sexes, weighing about 10 kg) were fasted for at least 12 hours before dosing. Food was returned after the last blood sample was collected (24 hours). Water was available at all times. A dose equivalent to 50 or 100 milligrams of compound I was administered by mouth to each dog, followed with either 20 or 50 ml of water, respectively, through a feeding tube. […] Blood samples of 3 ml volume were anti-coagulated with EDTA. The plasma was separated by centrifugation and frozen until analyzed. Blood plasma concentrations of compound I were determined by HPLC. Bioavailability was calculated as follows: % Bioavailability=[(AUC)oral×D/(AUC)intravenous]×100. (AUC)oral and (AUC)intravenous are the areas under the curve for the plasma concentration-time profiles following oral and intravenous administration, respectively. D is a correlation factor for the difference between intravenous administration (3 mg/kg) and oral administration (about 10 mg/kg).

salt depleted dogs = experiment: Blood pressure lowering in salt depleted dogs; type: in vivo, dog; details: after oral or intravenous administration

CC(C)C[C@H](O)[C@H](O)[C@H](CC1CCCCC1)NC(=O)[C@H](Cc1cscn1)NC(=O)[C@H](Cc1ccccc1)CS(=O)(=O)N1CCN(C)CC1 [compound I, (2S)-2-Benzyl-3-(1-methyl-piperazin-4-ylsulfonyl)propionyl-(L)-(4-Thiazolyl)Ala Amide of (2S, 3R, 4S)-2-Amino-1-cyclohexyl-3,4-dihydroxy-6-methylheptane]
times more bioavailable as soft elastic gelatin encapsulated solution compared to standard solid capsule or tablet compositions [1]: 2.1-5.2 times
blood pressure (salt depleted dogs): reduces blood pressure
